Laboratory results taken from patent US9636317B2, “Compositions and methods of use of phorbol esters” (priority 2007, dated 2017).

Columns and labels:
[1] = most polar organic solvents and water; cited from earlier work
primary AML = details: pharmacological interruption of ERK signaling; cited from earlier work
primary AML cells = test: Primary AML cultures ex vivo: cell viability, apoptosis assays and Western analysis of ERK; assay type: cell-based, human; details: primary AML samples
Description: In addition to protein kinase C and ERK activation, TPA is a known inducer of NF-κB, a pro-survival transcription factor often constitutively active in AML blasts and leukemic stem cells.

HIV = details: cited from earlier work

CC1=C[C@H]2[C@@]3(O)[C@H](C)[C@@H](O)[C@]4(O)[C@H]([C@@H]3C=C(CO)C[C@]2(O)C1=O)C4(C)C [Phorbol]
solubility [1]: well soluble in most polar organic solvents and in water

N#CC(=C(/N)Sc1ccccc1N)/C(C#N)=C(\N)Sc1ccccc1N [U0126]
primary AML survival (primary AML): decreased primary AML survival

COc1cccc(-c2cc(=O)c3ccccc3o2)c1N [PD98059]
primary AML survival (primary AML): decreased primary AML survival

C[C@@H]1C[C@H]2[C@@H]3CCC4=CC(=O)C=C[C@]4(C)[C@@]3(F)[C@@H](O)C[C@]2(C)[C@@]1(O)C(=O)CO [dexamethasone, reference compound]
effect on TPA cytotoxicity (primary AML cells): enhance TPA cytotoxicity

CC(=O)O[C@@]12C[C@@H](C)[C@@]3(O)[C@@H](C=C(CO)C[C@]4(O)C(=O)C(C)=C[C@@H]34)[C@@H]1C2(C)C [Prostratin, 12-deoxyphorbol 13-acetate]
HIV induced cell killing and viral replication (HIV): some effectiveness for inhibiting HIV induced cell killing and viral replication
effect on chronically-infected cell lines (HIV): little or no effect on chronically-infected cell lines
viral expression in latently-infected cell lines (HIV): activated viral expression in latently-infected cell lines

O=C(NOCC1CC1)c1ccc(F)c(F)c1Nc1ccc(I)cc1Cl [PD 184352]
primary AML survival (primary AML): decreased primary AML survival
